Common to all, as to assay: MTSEA thiol modification rate (SCAM) from ACh-evoked currents in oocytes
Assay type in all cases: cell-based, chick

Test [1] addresses α7 AChR N^170C mutant (C^115A/L^247T background) (Gallus gallus, UniProt P22770, C138A/L270T/N193C). To be noted: ± standard error. As for the experimental part: (§1) ACh-evoked current amplitudes decreased following brief, repeated exposure to a limiting concentration of MTSEA (5 μM, 15 seconds). To ensure that the modification reactions were complete, all rate measurements included a final prolonged application of ~100-fold higher concentrations of MTSEA (Fig. 3A and 3B, right). Currents measured following this application represent the endpoint of the reaction between MTSEA and receptors. When the same protocol included Ba^2+ pretreatment and co-application with MTSEA (see Methods), the decreases in current amplitudes were slowed but the same endpoint was obtained (Fig. 3B). Normalized current amplitudes were plotted as a function of the cumulative time of exposure to MTSEA, and pseudo first-order rates were extracted from the single-exponential fits (Fig. 3C).
(§2) Figure 3 Barium slows the rate of MTSEA modification at M^37C. Example of experimental paradigm used to assess Ba^2+ effects on modification rates. […] Endpoints of MTSEA modification are determined by prolonged application of 500 μM MTSEA (right). (B) The same protocol, including Ba^2+ pretreatment and co-application with MTSEA. Current traces are truncated in both (A) and (B) between consecutive MTSEA applications; in all cases the currents were allowed to return to baseline prior to the next application of MTSEA ± ACh. (C) Peak current amplitudes from (A) and (B) are normalized and plotted versus total MTSEA exposure time. Data from this single experiment (no error bars) are fitted to a single-exponential decay (solid line) to extract an apparent pseudo first-order rate constant. The pseudo first-order rate constants calculated in this experiment were 0.011 s^-1 and 0.0019 s^-1 for control (A) and +Ba^2+ (B) measurements, respectively. Second-order rate constants are calculated from these values (Figures 4–6; Table 2).
(§3) Oocytes were superfused in normal extracellular solution containing a reduced Ca^2+ concentration (ESLC; 96 mM NaCl, 2 mM KCl, 1 mM MgCl2, 0.1 mM CaCl2, and 10 mM HEPES, pH 7.5). This solution minimized Ca^2+ influx and eliminated Ca^2+-activated chloride currents. Two-electrode voltage clamp was performed with a GeneClamp 500B controlled by pCLAMP8 software (Molecular Devices, Sunnyvale, CA). Electrodes were filled with 3 M KCl contacting Ag-AgCl wires and had resistances of 0.5 to 2.0 MΩ. Currents were recorded at a constant holding potential of -60 mV. Currents were low pass filtered at 50 Hz and sampled at 100 Hz. Agonist dose-response curves were obtained as described previously, and data were fit to the Hill equation using Origin software (Microcal Software, Northampton, MA).
(§4) MTSEA was prepared daily in distilled water and stored on ice. Stock solution was diluted to the appropriate working concentration in ESLC immediately before each application. […] The limiting dose, yielding 20–40% of the maximal MTSEA effect, was identified for each mutant. […] To measure the effect of Ba^2+ on modification rates we pre-applied 10 mM Ba^2+ for 30 seconds prior to co-application of 10 mM Ba^2+ plus MTSEA. This concentration of Ba^2+ is equivalent to an approximate […] for the modulatory effects in both parental and mutant AChRs. Kinetic data were analyzed as described previously; rate data were fit to a single exponential to extract a pseudo-first order rate constant; this was divided by the MTSEA concentration used to determine the second order rate constant for thiol modification.

Test [2] deals with α7 AChR E^172C mutant (C^115A/L^247T background) (Gallus gallus, UniProt P22770, C138A/E195C/L270T). To be noted: ± standard error. As for the experimental part:
as §1, §2, §3, §4

The target in test [3] is α7 AChR N^52C mutant (C^115A/L^247T background) (Gallus gallus, UniProt P22770, C138A/L270T/N75C). To be noted: ± standard error. The procedure:
as §1, §2, §3, §4

Test [4] concerns the target α7 AChR E^44C mutant (C^115A/L^247T background) (Gallus gallus, UniProt P22770, C138A/E67C/L270T). As for the experimental part: as §1, §2, §3, §4
The target in test [5] is α7 AChR M^37C mutant (C^115A/L^247T background) (Gallus gallus, UniProt P22770, C138A/L270T/M60C). To be noted: for pseudo first-order rate constant of MTSEA modification: 5 μM MTSEA, single experiment. The procedure: as §1, §2, §3, §4
In test [6] the target is α7 AChR M^40C/E^172Q mutant (C^115A/L^247T background) (Gallus gallus, UniProt P22770, C138A/E195Q/L270T/M63C). To be noted: ± standard error. As for the experimental part:
as §1, §2, §3, §4

Test [7] concerns the target T1, α7 AChR M^40C mutant (C^115A/L^247T background) (Gallus gallus, UniProt P22770, C138A/L270T/M63C).
T1 construct: expressed in transfected cells; host or cells: Xenopus laevis oocytes injected with cRNA
To be noted: ± standard error. As for the experimental part: as §1, §2, §3, §4

The mark [8] stands for this setting: co-expression with human RIC-3, MTSEA + 10 mM Ba^2+ (30 s pre-application).
[9] abbreviates: co-expression with human RIC-3, MTSEA + ~EC110 ACh.
[10] abbreviates: co-expression with human RIC-3, MTSEA alone.
The mark [11] stands for this setting: MTSEA + 10 mM Ba^2+ (30 s pre-application).
Setting [12] is: MTSEA + 10 mM Ba^2+ (30 s pre-application), ± standard error.
[13] abbreviates: MTSEA + ~EC110 ACh, ± standard error.

Consider `CS(=O)(=O)SCCN` [MTSEA, 2-aminoethylmethane thiosulfonate], for which the “MTSEA modification rate (second-order rate constant), + Ba^2+” value in test [1] (setting [8]) was 3.7 ± 0.06 (9) × 10^3, M^-1 S^-1; in test [2] (setting [8]), 7.3 ± 0.3 (6) × 10^3, M^-1 S^-1; in test [3] (setting [11]), 0.26 ± 0.02 (7) × 10^3, M^-1 S^-1; in test [4] (setting [12]), 9.3 ± 0.1(8) × 10^3, M^-1 S^-1; in test [5] (setting [12]), 0.40 ± 0.02 (5) × 10^3, M^-1 S^-1; in test [6] (setting [8]), 2.0 ± 0.3 (6) × 10^3, M^-1 S^-1. The “MTSEA modification rate (second-order rate constant), + Ba^2+” value in test [7] (setting [11]) is 2.8 ± 0.05 (7) × 10^3, M^-1 S^-1. Also, the “MTSEA modification rate (second-order rate constant), + ACh” value was 5.7 ± 0.1 (7) × 10^3, M^-1 S^-1 in test [1] (setting [9]); 3.5 ± 0.1 (5) × 10^3, M^-1 S^-1 in test [2] (setting [9]); 1.4 ± 0.04 (7) × 10^3, M^-1 S^-1 in test [3] (MTSEA + ~EC110 ACh); 0.90 ± 0.05 (4) × 10^3, M^-1 S^-1 in test [4] (setting [13]); 0.30 ± 0.05 (4) × 10^3, M^-1 S^-1 in test [5] (setting [13]); 1.3 ± 0.1 (5) × 10^3, M^-1 S^-1 in test [6] (setting [9]). The “MTSEA modification rate (second-order rate constant), + ACh” value in test [7] (MTSEA + ~EC110 ACh) is 2.2 ± 0.4 (3) × 10^3, M^-1 S^-1. Also, the “MTSEA modification rate (second-order rate constant), control” value in test [1] (setting [10]) is given as 3.3 ± .05 (7) × 10^3, M^-1 S^-1; in test [2] (setting [10]), 15 ± 0.4 (5) × 10^3, M^-1 S^-1; in test [3] (MTSEA alone), 0.40 ± .08 (9) × 10^3, M^-1 S^-1; in test [4] (MTSEA alone, ± standard error), 23 ± 0.7 (4) × 10^3, M^-1 S^-1; in test [5] (MTSEA alone, ± standard error), 2.4 ± .03 (10) × 10^3, M^-1 S^-1; in test [6] (setting [10]), 14 ± 0.5 (5) × 10^3, M^-1 S^-1. Further, the “MTSEA modification rate (second-order rate constant), control” value in test [7] (MTSEA alone) was 16 ± 0.2 (13) × 10^3, M^-1 S^-1. Moreover, the “MTSEA modification rate in the presence of Ba^2+ compared to that in the presence of ACh” value in test [4] (higher with Ba^2+) is on record as ~ 10 fold. Moreover, the entries for the “pseudo first-order rate constant of MTSEA modification” value in test [5] (+Ba^2+) and in test [5] (control) were 0.0019 s⁻¹ and 0.011 s⁻¹, respectively.

The values are drawn from PMC2632993, “Conformational changes in α7 acetylcholine receptors underlying allosteric modulation by divalent cations” (BMC Pharmacology, 2009).
